According to US9957271B2, “Substituted bicyclic aza-heterocycles and analogues as sirtuin modulators” (GlaxoSmithKline, LLC, priority 2012, dated 2018):

Legend:
SIRT1 [1] = molecular target: T1, SIRT1 (Homo sapiens, UniProt Q96EB6); experiment: TAMRA based mass spectrometry assay of SIRT1 activity; format: biochemical; conditions: for TAMRA EC1.5 / TAMRA EC1.5 (μM): concentration giving 150% activation of SIRT1; for Emax: percent maximum fold activation, read-out: TAMRA % Fold Act
T1 sequence (Q96EB6 1-747): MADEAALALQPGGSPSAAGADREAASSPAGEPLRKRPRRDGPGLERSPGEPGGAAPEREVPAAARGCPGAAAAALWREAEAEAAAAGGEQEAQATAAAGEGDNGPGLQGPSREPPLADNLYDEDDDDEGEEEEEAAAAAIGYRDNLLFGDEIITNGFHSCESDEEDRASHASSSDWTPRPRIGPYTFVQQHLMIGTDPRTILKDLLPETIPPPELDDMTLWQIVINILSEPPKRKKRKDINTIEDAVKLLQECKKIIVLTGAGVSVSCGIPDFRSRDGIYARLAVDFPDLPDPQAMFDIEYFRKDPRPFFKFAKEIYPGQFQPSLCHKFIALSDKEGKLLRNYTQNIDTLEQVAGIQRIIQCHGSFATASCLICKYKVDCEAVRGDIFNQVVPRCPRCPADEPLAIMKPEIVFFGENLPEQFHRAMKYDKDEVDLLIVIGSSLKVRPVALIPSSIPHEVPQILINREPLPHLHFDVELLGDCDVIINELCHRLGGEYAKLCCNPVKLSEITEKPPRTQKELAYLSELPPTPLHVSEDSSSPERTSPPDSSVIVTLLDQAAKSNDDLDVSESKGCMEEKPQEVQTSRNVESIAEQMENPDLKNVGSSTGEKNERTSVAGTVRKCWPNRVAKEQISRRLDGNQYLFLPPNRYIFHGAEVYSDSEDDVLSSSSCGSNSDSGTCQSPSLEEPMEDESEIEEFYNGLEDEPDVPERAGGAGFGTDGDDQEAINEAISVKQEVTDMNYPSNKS
Procedure, shortened: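 Deacetylation of a biotinylated, TAMRA-tagged p53-based peptide (0.5 μM) by 10 nM His-tagged SIRT1 with 120 μM βNAD+, 25 °C for 25 min, pH 8 Tris-acetate buffer, across a compound concentration range. Quenched by formic acid and read by mass spec as product peptide or OAADPR; activity relative to DMSO reactions, nicotinamide defining maximal inhibition.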

SIRT1 [2] = molecular target: T1, SIRT1; experiment: Trp mass spectrometry assay of SIRT1 activity; format: biochemical; conditions: for Trp EC1.5 / Trp EC1.5 (μM): concentration giving 150% activation of SIRT1; for Emax: percent maximum fold activation, read-out: Trp % Fold Act
Procedure, shortened: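 Activation readout: EC1.5 (concentration raising activity 50% over control) and percent maximum activation, from mass-spec quantitation of OAADPR or deacetylated Trp peptide. Reaction: 0.5 μM acetylated Trp peptide, 120 μM βNAD+, 10 nM bacterially expressed N-His SIRT1, pH 7.5 HEPES buffer with […], 25 min at 25° C.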

SMILES	TAMRA EC1.5 (SIRT1 [1]; TAMRA peptide substrate)	Emax (SIRT1 [1]; TAMRA peptide substrate) [%]	Trp EC1.5 (SIRT1 [2]; Trp peptide substrate)	Emax (SIRT1 [2]; Trp peptide substrate) [%]	TAMRA EC1.5 (μM) (SIRT1 [1]; TAMRA assay)	Emax (SIRT1 [1]; TAMRA assay) [%]	Trp EC1.5 (μM) (SIRT1 [2]; Trp assay)	Emax (SIRT1 [2]; Trp assay) [%]
Cc1nn2ccc(-c3ccccc3C(F)(F)F)nc2c1NC(=O)c1cccc(N2CCOCC2)n1 [Compound 574]	A (EC1.5<1 μM)	≥ 350	B (EC1.5 1-25 μM)	< 350	–	–	–	–
Cc1nn2ccc(-c3ccccc3C(F)(F)F)nc2c1C(=O)Nc1cccc(O)n1 [Compound 577]	B (EC1.5 1-25 μM)	< 350	A (EC1.5<1 μM)	< 350	–	–	–	–
O=C(Nc1cccc(N2CCOCC2)n1)c1cnc2ccc(N3CCCC(C(F)(F)F)C3)nn12 (centres unmarked) [Compound 578]	A (EC1.5<1 μM)	≥ 350	A (EC1.5<1 μM)	≥ 350	–	–	–	–
O=C(Nc1cccc(O)n1)c1cnn2ccc(-c3ccccc3OC(F)(F)F)nc12 [Compound 580]	B (EC1.5 1-25 μM)	≥ 350	A (EC1.5<1 μM)	≥ 350	–	–	–	–
O=C(Nc1cnn2ccc(-c3ccccc3OC(F)(F)F)nc12)c1ccncc1 [Compound 583]	B (EC1.5 1-25 μM)	< 350	C (EC1.5>25 μM)	< 350	–	–	–	–
O=C(Nc1cnn2ccc(-c3ccccc3OC(F)(F)F)nc12)c1cnccn1 [Compound 584]	B (EC1.5 1-25 μM)	≥ 350	C (EC1.5>25 μM)	< 350	–	–	–	–
Cc1nc2c(C)cc(-c3ccccc3C(F)(F)F)nn2c1C(=O)Nc1cnccn1 [Compound 586]	A (EC1.5<1 μM)	≥ 350	A (EC1.5<1 μM)	≥ 350	–	–	–	–
COc1cccc(C(=O)Nc2c(C)nc3c(C)cc(-c4ccccc4C(F)(F)F)nn23)n1 [Compound 589, N-(2,8-dimethyl-6-(2-(trifluoromethyl)phenyl)imidazo[1,2-b]pyridazin-3-yl)-6-methoxypicolinamide]	B (EC1.5 1-25 μM)	≥ 350	B (EC1.5 1-25 μM)	< 350	–	–	–	–
Cc1nc2c(C)cc(-c3ccccc3C(F)(F)F)nn2c1NC(=O)c1cccc(O)n1 [Compound 590]	B (EC1.5 1-25 μM)	< 350	C (EC1.5>25 μM)	< 350	–	–	–	–
Cc1cc(C)nc(NC(=O)c2cnc3ccc(-c4cccc(OC[C@H](O)CO)c4)nn23)c1 [Compound 591]	A (EC1.5<1 μM)	≥ 350	A (EC1.5<1 μM)	< 350	–	–	–	–
Cc1nc2ccc(-c3cccc(OC[C@H](O)CO)c3)nn2c1C(=O)Nc1ccncn1 [Compound 594]	B (EC1.5 1-25 μM)	< 350	B (EC1.5 1-25 μM)	< 350	–	–	–	–
Cc1nc2ccc(-c3cccc(OC[C@H](O)CO)c3)nn2c1C(=O)Nc1cccnn1 [Compound 597]	–	–	–	–	B (EC1.5 1-25 μM)	< 350	A (EC1.5<1 μM)	< 350
Cc1cc(-c2ccccc2C(F)(F)F)nn2c(C(=O)Nc3ccnc(O[C@@H]4CCOC4)n3)cnc12 [Compound 598]	–	–	–	–	A (EC1.5<1 μM)	≥ 350	A (EC1.5<1 μM)	≥ 350
CCOc1nccc(NC(=O)c2cnc3ccc(-c4ccccc4C(F)(F)F)nn23)n1 [Compound 600]	–	–	–	–	A (EC1.5<1 μM)	≥ 350	A (EC1.5<1 μM)	≥ 350
Cc1cnc(NC(=O)c2cnn3ccc(-c4ccccc4OC(F)(F)F)nc23)s1 [Compound 603]	–	–	–	–	B (EC1.5 1-25 μM)	≥ 350	B (EC1.5 1-25 μM)	< 350
Cc1ccnc(NC(=O)c2cnn3ccc(-c4ccccc4OC(F)(F)F)nc23)c1 [Compound 604]	–	–	–	–	A (EC1.5<1 μM)	≥ 350	B (EC1.5 1-25 μM)	< 350
O=C(Nc1ccncc1F)c1cnn2ccc(-c3ccccc3OC(F)(F)F)nc12 [Compound 606]	–	–	–	–	A (EC1.5<1 μM)	≥ 350	A (EC1.5<1 μM)	< 350
